Experimental findings from patent publication US20080139564A1, “SUBSTITUTED PHENYL PROPYL AMINES AS HISTAMINE H3 RECEPTOR AND SEROTONIN TRANSPORTER MODULATORS” (priority 2006, published 2008) are described below.

Like-named read-outs stand apart in the source and are kept apart here.

The target of assay [1] is T1, human H3 receptor (Homo sapiens, UniProt Q9Y5N1).
T1 construct: expressed in transfected cells
The assay can be described thus: H3 receptor binding (N-[3H]-α-methylhistamine displacement, SK-N-MC cell membranes). The following applies: 0.8 nM N-[3H]-α-methylhistamine, 60 min at 25° C. The essentials:
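Membranes from SK-N-MC cells stably expressing cloned human H3 receptor, in 50 mM Tris/5 mM EDTA pH 7.4, incubated with 0.8 nM N-[³H]-α-methylhistamine ± compound for 60 min at 25° C., then filtered. Nonspecific binding defined with 10 μM histamine.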

Assay [2] addresses T1, human H3 receptor. The assay can be described thus: Cyclic AMP accumulation (β-galactosidase reporter in SK-N-MC cells). The following applies: read-out: pA2 (converted). Type of assay: cell-based. The method, then: Sublines of SK-N-MC cells were created that expressed a reporter construct and the human H3 receptor. The reporter gene (β-galactosidase) is under the control of multiple cyclic AMP responsive elements. In 96-well plates, histamine was added directly to the cell media followed 5 min later by an addition of forskolin (5 μM final concentration). When appropriate, antagonists were added 10 min prior to agonist addition. After a 6-h incubation at 37° C., the media was aspirated and the cells washed with 200 μL of phosphate-buffered saline followed by a second aspiration. Cells were lysed with 25 μL 0.1× assay buffer (10 mM Na-phosphate, pH 8, 0.2 mM MgSO4, 0.01 mM MnCl2) and incubated at rt for 10 min. Cells were then incubated for 10 min with 100 μL of 1× assay buffer containing 0.5% Triton and 40 mM β-mercaptoethanol. Color was developed using 25 μL of 1 mg/mL substrate solution (chlorophenolred β-D galactopyranoside; Roche Molecular Biochemicals, Indianapolis, Ind.). Color was quantitated on a microplate reader at absorbance 570 nm. The pA2 values were calculated by Schild regression analysis of the pEC50 values.

In a further assay the target is T2, human SERT (Homo sapiens, UniProt P31645).
T2 construct: expressed in transfected cells; host or cells: HEK293
The assay can be described thus: Human SERT binding (3H-citalopram displacement, HEK293 membranes). The following applies: 3H-citalopram 3.1 nM, rt for 1 h. In a few lines:
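HEK293 membranes expressing human SERT incubated with ^3H-citalopram (3.1 nM) for 1 h at rt in 50 mM Tris, 120 mM NaCl, 5 mM KCl, pH 7.4. Nonspecific binding defined with 10 μM fluoxetine. Ki derived from bound radioactivity using the ^3H-citalopram Kd.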

The target in the next assay is T3, Rat SERT (Rattus norvegicus, UniProt P31652).
T3 construct: A rat brain without cerebellum (Zivic Laboratories, Inc.—Pittsburgh, Pa.) was homogenized; tissue Zivic Laboratories, Inc; host or cells: rat brain without cerebellum
The assay can be described thus: Rat brain SERT binding ([3H]-Citalopram displacement, rat brain membranes). The following applies: 0.6 nM [3H]-Citalopram, 60 min at 25° C. The essentials:
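Membranes prepared from rat brain minus cerebellum in Tris pH 8/NaCl/KCl were incubated with 0.6 nM [3H]-citalopram and test compound for 60 min at 25° C. Bound ligand was separated by filtration. Nonspecific binding defined with 100 μM fluoxetine.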

The mark [3] stands for this setting: Schild regression analysis of the pEC50 values, histamine agonist, forskolin 5 μM, SK-N-MC reporter cells.

T3 sequence (P31652 whole entry): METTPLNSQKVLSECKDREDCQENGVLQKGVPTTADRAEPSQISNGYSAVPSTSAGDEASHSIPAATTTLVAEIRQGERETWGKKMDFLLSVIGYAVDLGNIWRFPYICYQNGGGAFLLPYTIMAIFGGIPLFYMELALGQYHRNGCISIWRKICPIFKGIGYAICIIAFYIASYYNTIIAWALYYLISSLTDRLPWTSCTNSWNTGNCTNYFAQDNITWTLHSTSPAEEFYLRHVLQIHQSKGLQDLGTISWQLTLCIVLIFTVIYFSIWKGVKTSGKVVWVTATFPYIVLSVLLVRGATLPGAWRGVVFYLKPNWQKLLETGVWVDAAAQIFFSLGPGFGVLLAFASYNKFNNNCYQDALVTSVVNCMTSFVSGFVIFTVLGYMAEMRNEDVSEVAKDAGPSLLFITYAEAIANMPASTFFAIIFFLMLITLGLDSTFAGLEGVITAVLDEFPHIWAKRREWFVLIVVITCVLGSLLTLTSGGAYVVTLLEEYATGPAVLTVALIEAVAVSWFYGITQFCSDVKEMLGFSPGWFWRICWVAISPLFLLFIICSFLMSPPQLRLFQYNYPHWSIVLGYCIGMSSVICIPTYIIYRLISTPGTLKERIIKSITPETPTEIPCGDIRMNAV
T2 sequence (P31645 whole entry): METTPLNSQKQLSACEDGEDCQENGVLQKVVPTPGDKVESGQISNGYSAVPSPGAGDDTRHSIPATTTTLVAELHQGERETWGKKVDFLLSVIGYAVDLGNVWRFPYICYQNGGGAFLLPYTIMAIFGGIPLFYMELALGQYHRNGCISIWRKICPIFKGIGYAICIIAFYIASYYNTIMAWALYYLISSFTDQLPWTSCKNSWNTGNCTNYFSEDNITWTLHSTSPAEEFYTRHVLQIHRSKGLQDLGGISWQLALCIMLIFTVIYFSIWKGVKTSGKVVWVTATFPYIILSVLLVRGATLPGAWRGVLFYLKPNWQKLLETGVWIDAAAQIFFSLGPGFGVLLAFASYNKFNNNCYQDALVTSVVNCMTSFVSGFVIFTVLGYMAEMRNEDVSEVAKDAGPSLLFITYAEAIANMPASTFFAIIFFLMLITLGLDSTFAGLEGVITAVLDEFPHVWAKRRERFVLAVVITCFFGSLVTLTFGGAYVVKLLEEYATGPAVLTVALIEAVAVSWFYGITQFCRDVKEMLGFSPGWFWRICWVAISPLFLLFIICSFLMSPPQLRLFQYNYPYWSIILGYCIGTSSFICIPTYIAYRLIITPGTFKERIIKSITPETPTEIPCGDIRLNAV
T1 sequence (Q9Y5N1 whole entry): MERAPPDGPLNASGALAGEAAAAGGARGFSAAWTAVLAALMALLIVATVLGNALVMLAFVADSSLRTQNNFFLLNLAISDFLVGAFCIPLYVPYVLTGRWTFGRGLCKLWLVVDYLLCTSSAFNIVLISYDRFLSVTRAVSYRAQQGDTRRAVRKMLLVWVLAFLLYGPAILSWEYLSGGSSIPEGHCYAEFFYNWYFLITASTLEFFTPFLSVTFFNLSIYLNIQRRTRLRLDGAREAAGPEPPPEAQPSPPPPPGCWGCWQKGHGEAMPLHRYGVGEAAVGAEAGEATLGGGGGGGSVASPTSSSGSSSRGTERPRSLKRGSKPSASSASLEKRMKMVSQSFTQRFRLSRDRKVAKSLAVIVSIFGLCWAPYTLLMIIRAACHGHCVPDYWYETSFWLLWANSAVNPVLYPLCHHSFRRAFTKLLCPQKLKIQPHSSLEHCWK

With `CN(C)CCC(Sc1ccccc1)c1ccc(OCCCN2CCCCC2)cc1` (centres unmarked) [Example 67, Dimethyl-{3-phenylsulfanyl-3-[4-(3-piperidin-1-yl-propoxy)phenyl]-propyl}-amine], the Ki on human H3 receptor [1] came out at 0.6 nM; at human SERT, 53 nM; on Rat SERT, 4 nM. The Kb at human H3 receptor [2] was 0.631 nM.

On to `CNCCC(Oc1ccc(Cl)c(Cl)c1)c1ccc(OCCCN2CCCCC2)cc1` (centres unmarked) [Example 71, {3-(3,4-Dichloro-phenoxy)-3-[4-(3-piperidin-1-yl-propoxy)-phenyl]-propyl}-methyl-amine], for which the values for the inhibition constant Ki at human H3 receptor [1], on human SERT and on Rat SERT were 2 nM, 0.8 nM and 3 nM, respectively. In addition, at human H3 receptor [2], the Kb is 10.5 nM.

In the case of `CN(C)CCC(Oc1ccc(C(F)(F)F)cc1)c1ccc(C#CCCN2CCCCC2)cc1` (centres unmarked) [Example 20, Dimethyl-[3-[4-(4-piperidin-1-yl-but-1-ynyl)-phenyl]-3-(4-trifluoromethyl-phenoxy)-propyl]-amine], the inhibition constant (Ki) was 9 nM on human H3 receptor [1], 61 nM on human SERT and 58 nM on Rat SERT. For the same compound, the Kb at human H3 receptor [2] (setting [3]) is 5.62 nM.

Take `CN(C)CCC(Oc1ccc(C(F)(F)F)cc1)c1ccc(OCCCN2CCCCC2)cc1` (centres unmarked) [Example 2, Dimethyl-[3-[4-(3-piperidin-1-yl-propoxy)-phenyl]-3-(4-trifluoromethyl-phenoxy)-propyl]-amine]: the Ki on human H3 receptor [1] came out at 2.5 nM; on human SERT it was 14 nM; at Rat SERT, 17 nM. For the same compound, the Kb on human H3 receptor [2] (setting [3]) is 2.95 nM.

In the case of `CC(C)N1CCN(C(=O)c2ccc(C(CCN(C)C)Oc3ccc(Cl)c(Cl)c3)cc2)CC1` (centres unmarked) [Example 40, {4-[1-(3,4-Dichloro-phenoxy)-3-dimethylamino-propyl]-phenyl}-(4-isopropyl-piperazin-1-yl)-methanone], the Ki at human H3 receptor [1] stood at 2 nM; at human SERT, 7 nM; on Rat SERT it was 18 nM. For the same compound, the Kb at human H3 receptor [2] was 2.19 nM.

With `CN(C)CCC(Oc1cccnc1)c1ccc(OCCCN2CCCCC2)cc1` (centres unmarked) [Example 18, Dimethyl-[3-[4-(3-piperidin-1-yl-propoxy)-phenyl]-3-(pyridin-3-yloxy)-propyl]-amine], the inhibition constant (Ki) amounted to 0.3 nM on human H3 receptor [1], 91 nM on human SERT and 9 nM at Rat SERT. Moreover, the Kb on human H3 receptor [2] was 0.0631 nM.

`CN(C)CCC(Nc1ccccc1)c1ccc(OCCCN2CCCCC2)cc1` (centres unmarked) [Example 66, N^3,N^3-Dimethyl-N^1-phenyl-1-[4-(3-piperidin-1-yl-propoxy)-phenyl]-propane-1,3-diamine]: the inhibition constant Ki at human H3 receptor [1] worked out at 3 nM; on human SERT, 151 nM; at Rat SERT, 15 nM. Further, the Kb at human H3 receptor [2] was 3.98 nM.

On to `CC(C)N1CCN(Cc2ccc(C(CCN(C)C)Oc3ccc(Cl)c(Cl)c3)cc2)CC1` (centres unmarked) [Example 47, {3-(3,4-Dichloro-phenoxy)-3-[4-(4-isopropyl-piperazin-1-ylmethyl)phenyl]-propyl}-dimethyl-amine], for which the inhibition constant Ki at human H3 receptor [1] amounted to 5 nM; on human SERT, 6 nM; on Rat SERT, 6 nM. Moreover, at human H3 receptor [2], the Kb was 11.5 nM.

Take `CC(C)N1CCC(Oc2ccc(C(CCN(C)C)Oc3ccccc3)cc2)CC1` (centres unmarked) [Example 36, {3-[4-(1-Isopropyl-piperidin-4-yloxy)-phenyl]-3-phenoxy-propyl}-dimethyl-amine]: the Ki at human H3 receptor [1] stood at 0.8 nM; on human SERT, 169 nM; on Rat SERT, 36 nM. Besides, the Kb at human H3 receptor [2] was 6.92 nM.

For the compound `CN(C)CCC(Oc1ccccc1)c1ccc(C#CCCN2CCCCC2)cc1` (centres unmarked) [Example 21, Dimethyl-{3-phenoxy-3-[4-(4-piperidin-1-yl-but-1-ynyl)-phenyl]-propyl}-amine], the Ki on human H3 receptor [1] was 1.2 nM; at human SERT, 29 nM; on Rat SERT, 5 nM. In addition, the Kb at human H3 receptor [2] is 0.661 nM.

Consider `CN(C)CCC(Oc1cccc(Br)c1)c1ccc(OCCCN2CCCCC2)cc1` (centres unmarked) [Example 15, {3-(3-Bromo-phenoxy)-3-[4-(3-piperidin-1-yl-propoxy)-phenyl]-propyl}-dimethyl-amine], for which the inhibition constant Ki on human H3 receptor [1] came out at 1 nM; on human SERT it was 4 nM; at Rat SERT, 2 nM. Moreover, on human H3 receptor [2] (setting [3]), the Kb is 1.58 nM.

Broadly, the Ki is the dissociation constant of the complex between target and ligand, obtained from inhibition or displacement. Lower therefore signals higher affinity.
